Source: ChEMBL document CHEMBL1201862, “PubChem BioAssay data set” (2004)
Calls of active or inactive are those of the source. No stated cut-off is given here; in the data, actives have a measured IC50 and inactives only a lower limit.

Molecular target: Envelope glycoprotein gp160 (Human immunodeficiency virus 1, UniProt Q6QLK5)
Experiment: inhibitors of HIV fusion peptide binding, primary screen, biochemical, uHTS, fluorescence dequenching (AID 1986)

Envelope glycoprotein gp160, sequence (Q6QLK5 whole entry, the tested form may be a part): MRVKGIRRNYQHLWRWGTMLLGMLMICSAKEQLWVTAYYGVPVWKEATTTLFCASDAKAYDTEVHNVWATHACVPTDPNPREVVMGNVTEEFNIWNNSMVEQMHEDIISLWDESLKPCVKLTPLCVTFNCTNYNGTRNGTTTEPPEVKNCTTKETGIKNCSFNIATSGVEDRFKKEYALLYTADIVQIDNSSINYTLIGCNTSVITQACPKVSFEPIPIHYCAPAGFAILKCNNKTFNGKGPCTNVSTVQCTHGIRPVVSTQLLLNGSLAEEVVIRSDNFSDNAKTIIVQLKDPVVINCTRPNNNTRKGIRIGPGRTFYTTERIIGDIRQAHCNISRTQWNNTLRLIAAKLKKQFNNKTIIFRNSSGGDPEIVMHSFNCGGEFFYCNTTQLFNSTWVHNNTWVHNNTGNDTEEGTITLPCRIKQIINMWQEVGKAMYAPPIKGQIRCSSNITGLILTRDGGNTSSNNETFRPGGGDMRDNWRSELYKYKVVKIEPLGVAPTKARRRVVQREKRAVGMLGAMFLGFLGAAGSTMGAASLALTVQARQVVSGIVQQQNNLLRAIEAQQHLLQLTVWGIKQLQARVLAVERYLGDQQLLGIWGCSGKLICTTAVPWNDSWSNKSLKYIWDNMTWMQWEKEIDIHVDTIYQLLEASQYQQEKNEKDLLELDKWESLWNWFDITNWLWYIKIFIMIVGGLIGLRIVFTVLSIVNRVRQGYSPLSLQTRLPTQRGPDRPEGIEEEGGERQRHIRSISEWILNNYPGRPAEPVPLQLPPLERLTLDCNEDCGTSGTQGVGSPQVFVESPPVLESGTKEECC

Row | Structure (SMILES) | IC50
1 | CCCOc1ccc(C2C(C(=O)c3cc4ccccc4o3)=C(O)C(=O)N2c2cc(C)on2)cc1 (configuration not stated) | 16.5 µM (active)
2 | COc1ccc(/C=N/NC(=O)c2[nH]c3ccc(Br)cc3c2-c2ccccc2)c(C(=O)O)c1OC | 19.4 µM (active)
